Literature values in patent US20030108955A1, “Dioxin derivatives and method of measurement therewith” (priority 2000, published 2003).

Conditions: general knowledge

For `O=C(O)CCCC[C@@H]1SC[C@@H]2NC(=O)N[C@@H]21` [biotin], the water solubility is given as “insoluble to water”.
